Source: publication PMC6150310, “Synthesis and Structure–Activity Relationships of 4-Morpholino-7,8-Dihydro-5H-Thiopyrano[4,3-d]pyrimidine Derivatives Bearing Pyrazoline Scaffold” (Molecules : A Journal of Synthetic Chemistry and Natural …, 2017)

Experiments:
MCF-7 cell line = assay: MTT cytotoxicity assay, MCF-7; type: cell-based; settings: Homo sapiens, MCF7, 72 h, average of two determinations, NA = No Activity
Method: (§1) Taking GDC-0941 as the reference compound, the target compounds (7a–l and 8a–l) were evaluated for the cytotoxicity against four cancer cell lines A549, PC-3, MCF-7, and HepG2 by 3-(4,5-dimethylthiazolyl-2)-2,5-diphenyltetrazolium bromide (MTT) cell proliferation assay. In order to confirm the types of target compound, selective or mixed-type inhibitors, the selected compound, 8d, was measured for its PI3Kα kinase inhibitory activity together with reference compounds GDC-0941 and PI103 via the Kinase-Glo® Luminescent […] assay. The results expressed as inhibition rates or IC50 values are summarized in Table 1 and Table 2, where the values are the average of at least two independent experiments.
(§2) The in vitro cytotoxic activities of Compounds 7a–l and 8a–l were evaluated with A549, PC-3, HepG2, and MCF-7 cell lines by the standard MTT assay, with GDC-0941 as a positive control. The cancer cell lines were cultured in minimum essential medium (MEM) supplement with 10% fetal bovine serum (FBS). Approximately, 4 × 10^3 cells, suspended in MEM medium, were plated onto each well of a 96-well plate and incubated in 5% CO2 at 37 °C for 24 h. The test compounds at the indicated final concentrations were added to the culture medium, and cell cultures continued for 72 h. Fresh MTT was added to each well at a terminal concentration of […] and incubated with cells at 37 °C for 4 h. The formazan crystals were dissolved in 100 µL of DMSO in each well, and the absorbency at 492 nm (for absorbance of MTT formazan) and 630 nm (for the reference wavelength) was measured with an enzyme linked immunosorbent assay (ELISA) reader (MR-96A Mindray Elisa Microplate Reader, Guangzhou, China). All compounds were tested three times in each of the cell lines. The results expressed as inhibition rates or IC50 were the averages of two determinations and calculated using the Bacus Laboratories Inc. Slide Scanner (Bliss) software (the Bacus Laboratories Inc. Slide Scanner (BLISS) system, Lombard, IL, USA).

HepG2 cell line = assay: MTT cytotoxicity assay, HepG2; type: cell-based; settings: Homo sapiens, HepG2, 72 h, average of two determinations, NA = No Activity
Method: as §1, §2

A549 cell line = assay: MTT cytotoxicity assay, A549; type: cell-based; settings: Homo sapiens, A549, 72 h, average of two determinations, NA = No Activity
Method: as §1, §2

PC-3 cell line = assay: MTT cytotoxicity assay, PC-3; type: cell-based; settings: Homo sapiens, PC-3, 72 h, average of two determinations, NA = No Activity
Method: as §1, §2

Row | SMILES | IC50 (MCF-7 cell line) [µM] | IC50 (HepG2 cell line) [µM] | IC50 (A549 cell line) [µM] | IC50 (PC-3 cell line) [µM] | melting point [°C]
1 | Fc1ccc(C2=NN(c3nc4c(c(N5CCOCC5)n3)CSCC4)[C@@H](c3ccc(F)cc3)C2)cc1 [Compound 7g, (R)-4-(2-(3,5-Bis(4-fluorophenyl)-4,5-dihydro-1H-pyrazol-1-yl)-7,8-dihydro-5H-thiopyrano[4,3-d]pyrimidin-4-yl)morpholine] | 26.4 ± 0.37 | 20.3 ± 0.37 | 16.9 ± 0.66 | 15.2 ± 1.54 | 144 to 146
2 | Brc1ccc([C@H]2CC(c3ccccc3)=NN2c2nc3c(c(N4CCOCC4)n2)CSCC3)cc1 [Compound 7k, (R)-4-(2-(5-(4-Bromophenyl)-3-phenyl-4,5-dihydro-1H-pyrazol-1-yl)-7,8-dihydro-5H-thiopyrano[4,3-d]pyrimidin-4-yl)morpholine] | 35.7 ± 0.74 | 32.7 ± 0.36 | 31.2 ± 0.59 | 17.8 ± 0.55 | 167 to 168
3 | Cc1ccc(C2=NN(c3nc4c(c(N5CCOCC5)n3)CS(=O)(=O)CC4)[C@@H](c3ccc(Cl)c(Cl)c3)C2)cc1 [Compound 8b, (R)-2-(5-(3,4-Dichlorophenyl)-3-(p-tolyl)-4,5-dihydro-1H-pyrazol-1-yl)-4-morpholino-7,8-dihydro-5H-thiopyrano[4,3-d]pyrimidine 6,6-dioxide] | 42.46 ± 0.03 |  | 35.6 ± 1.47 | 17.8 ± 1.18 | 225 to 226
4 | O=S1(=O)CCc2nc(N3N=C(c4ccccc4)C[C@@H]3c3ccc(Cl)c(Cl)c3)nc(N3CCOCC3)c2C1 [Compound 8e, (R)-2-(5-(3,4-Dichlorophenyl)-3-phenyl-4,5-dihydro-1H-pyrazol-1-yl)-4-morpholino-7,8-dihydro-5H-thiopyrano[4,3-d]pyrimidine 6,6-dioxide] | 35.3 ± 0.49 |  |  |  | 
5 | Fc1ccc(C2=NN(c3nc4c(c(N5CCOCC5)n3)CSCC4)[C@@H](c3ccc(Br)cc3)C2)cc1 (racemic) [Compound 7j, (R)-4-(2-(5-(4-Bromophenyl)-3-(4-fluorophenyl)-4,5-dihydro-1H-pyrazol-1-yl)-7,8-dihydro-5H-thiopyrano[4,3-d]pyrimidin-4-yl)morpholine] | 28.25 ± 0.14 | 23.8 ± 0.55 | 19.2 ± 1.25 | 14.8 ± 1.02 | 
6 | Clc1ccc([C@H]2CC(c3ccc(Br)cc3)=NN2c2nc3c(c(N4CCOCC4)n2)CSCC3)cc1Cl [Compound 7c, (R)-4-(2-(3-(4-Bromophenyl)-5-(3,4-dichlorophenyl)-4,5-dihydro-1H-pyrazol-1-yl)-7,8-dihydro-5H-thiopyrano[4,3-d]pyrimidin-4-yl)morpholine] | 22.98 ± 0.19 | 15.36 ± 0.03 | 13 ± 0.42 | 12.9 ± 1.56 | 185 to 186
7 | Fc1ccc(C2=NN(c3nc4c(c(N5CCOCC5)n3)CSCC4)[C@@H](c3ccc(Cl)c(Cl)c3)C2)cc1 [Compound 7d, (R)-4-(2-(5-(3,4-Dichlorophenyl)-3-(4-fluorophenyl)-4,5-dihydro-1H-pyrazol-1-yl)-7,8-dihydro-5H-thiopyrano[4,3-d]pyrimidin-4-yl)morpholine] | 10.3 ± 0.94 | 8.39 ± 1.91 | 6.02 ± 1.22 | 8.91 ± 0.72 | 207 to 211
8 | O=S1(=O)CCc2nc(N3N=C(c4ccccc4)C[C@@H]3c3ccc(Br)cc3)nc(N3CCOCC3)c2C1 [Compound 8k, (R)-2-(5-(4-Bromophenyl)-3-phenyl-4,5-dihydro-1H-pyrazol-1-yl)-4-morpholino-7,8-dihydro-5H-thiopyrano[4,3-d]pyrimidine 6,6-dioxide] | 32.6 ± 0.49 | 35.49 ± 0.33 | 35 ± 0.47 | 33.5 ± 1.67 | 163 to 167
9 | CS(=O)(=O)N1CCN(Cc2cc3nc(-c4cccc5[nH]ncc45)nc(N4CCOCC4)c3s2)CC1 [GDC-0941, Pictilisib dimethanesulfonate, reference compound] | 4.3 ± 0.84 | 0.07 ± 0.03 | 6.99 ± 0.21 | 0.2 ± 0.08 | 
10 | O=S1(=O)CCc2nc(N3N=C(c4ccc(F)cc4)C[C@@H]3c3ccc(Br)cc3)nc(N3CCOCC3)c2C1 (racemic) [Compound 8j, (R)-2-(5-(4-Bromophenyl)-3-(4-fluorophenyl)-4,5-dihydro-1H-pyrazol-1-yl)-4-morpholino-7,8-dihydro-5H-thiopyrano[4,3-d]pyrimidine 6,6-dioxide] | 46.6 ± 0.89 | 27.8 ± 0.64 | 29.7 ± 0.32 | 31.9 ± 0.92 | 
11 | COc1ccc(C2=NN(c3nc4c(c(N5CCOCC5)n3)CSCC4)[C@@H](c3ccccc3)C2)cc1 [Compound 7l, (R)-4-(2-(3-(4-Methoxyphenyl)-5-phenyl-4,5-dihydro-1H-pyrazol-1-yl)-7,8-dihydro-5H-thiopyrano[4,3-d]pyrimidin-4-yl)morpholine] |  |  | 36.4 ± 0.62 | 28.25 ± 0.14 | > 300
12 | O=S1(=O)CCc2nc(N3N=C(c4ccc(Br)cc4)C[C@@H]3c3ccc(Cl)c(Cl)c3)nc(N3CCOCC3)c2C1 [Compound 8c, (R)-2-(3-(4-Bromophenyl)-5-(3,4-dichlorophenyl)-4,5-dihydro-1H-pyrazol-1-yl)-4-morpholino-7,8-dihydro-5H-thiopyrano[4,3-d]pyrimidine 6,6-dioxide] | 43.86 ± 0.15 | 0.06 ± 0.01 | 27.8 ± 1.18 | 37.58 ± 0.22 | 162 to 163
13 | O=S1(=O)CCc2nc(N3N=C(c4ccc(F)cc4)C[C@@H]3c3ccc(F)cc3)nc(N3CCOCC3)c2C1 [Compound 8g, (R)-2-(3,5-bis(4-Fluorophenyl)-4,5-dihydro-1H-pyrazol-1-yl)-4-morpholino-7,8-dihydro-5H-thiopyrano[4,3-d]pyrimidine 6,6-dioxide] | 35.3 ± 0.39 | 36.01 ± 0.18 | 29.1 ± 0.49 | 21.8 ± 0.67 | 246 to 249
14 | Cc1ccc(C2=NN(c3nc4c(c(N5CCOCC5)n3)CSCC4)[C@@H](c3ccc(Br)cc3)C2)cc1 (racemic) [Compound 7i, (R)-4-(2-(5-(4-Bromophenyl)-3-(p-tolyl)-4,5-dihydro-1H-pyrazol-1-yl)-7,8-dihydro-5H-thiopyrano[4,3-d]pyrimidin-4-yl)morpholine] |  |  | 16.4 ± 0.43 | 25.4 ± 0.74 | 
15 | Cc1ccc(C2=NN(c3nc4c(c(N5CCOCC5)n3)CSCC4)[C@@H](c3ccc(Cl)c(Cl)c3)C2)cc1 [Compound 7b, (R)-4-(2-(5-(3,4-Dichlorophenyl)-3-(p-tolyl)-4,5-dihydro-1H-pyrazol-1-yl)-7,8-dihydro-5H-thiopyrano[4,3-d]pyrimidin-4-yl)morpholine] | 42.6 ± 1.75 | 27.8 ± 0.99 | 24.2 ± 0.74 | 14.1 ± 3.45 | 194 to 196
16 | Cc1ccc(C2=NN(c3nc4c(c(N5CCOCC5)n3)CS(=O)(=O)CC4)[C@@H](c3ccc(Br)cc3)C2)cc1 (racemic) [Compound 8i, (R)-2-(5-(4-Bromophenyl)-3-(p-tolyl)-4,5-dihydro-1H-pyrazol-1-yl)-4-morpholino-7,8-dihydro-5H-thiopyrano[4,3-d]pyrimidine 6,6-dioxide] |  | 24.7 ± 0.74 | 28.1 ± 0.89 | 31.89 ± 0.25 | 
17 | COc1ccc(C2=NN(c3nc4c(c(N5CCOCC5)n3)CS(=O)(=O)CC4)[C@@H](c3ccccc3)C2)cc1 [Compound 8l, (R)-2-(3-(4-Methoxyphenyl)-5-phenyl-4,5-dihydro-1H-pyrazol-1-yl)-4-morpholino-7,8-dihydro-5H-thiopyrano[4,3-d]pyrimidine 6,6-dioxide] |  |  |  | 37.38 ± 0.23 | 109 to 114
18 | COc1ccc(C2=NN(c3nc4c(c(N5CCOCC5)n3)CS(=O)(=O)CC4)[C@@H](c3ccc(Cl)c(Cl)c3)C2)cc1 [Compound 8f, (R)-2-(5-(3,4-Dichlorophenyl)-3-(4-methoxyphenyl)-4,5-dihydro-1H-pyrazol-1-yl)-4-morpholino-7,8-dihydro-5H-thiopyrano[4,3-d]pyrimidine 6,6-dioxide] |  | 35.01 ± 0.18 |  | 38.65 ± 0.18 | 
19 | O=S1(=O)CCc2nc(N3N=C(c4ccccc4)C[C@@H]3c3ccccc3)nc(N3CCOCC3)c2C1 [Compound 8a, (R)-2-(3,5-Diphenyl-4,5-dihydro-1H-pyrazol-1-yl)-4-morpholino-7,8-dihydro-5H-thiopyrano[4,3-d]pyrimidine 6,6-dioxide] | 41.2 ± 1.25 | 32.7 ± 0.39 | 27.6 ± 0.85 |  | 219 to 220
20 | Clc1ccc([C@H]2CC(c3ccccc3)=NN2c2nc3c(c(N4CCOCC4)n2)CSCC3)cc1Cl (racemic) [Compound 7e, (R)-4-(2-(5-(3,4-Dichlorophenyl)-3-phenyl-4,5-dihydro-1H-pyrazol-1-yl)-7,8-dihydro-5H-thiopyrano[4,3-d]pyrimidin-4-yl)morpholine] | 35.9 ± 0.71 |  |  | 37.8 ± 3.64 | 
